Results published in patent US20260217701A1, “SELECTIVE BET INHIBITORS AND USES THEREOF” (Tay Therapeutics Limited, priority 2022, published 2026).

What was measured:
[1] = tested on: lupus; assay: SLE (lupus) model: kidney histology lesion scores; format: in vivo, MRL/MpJ-Faslpr mice; settings: for Total Glomerular Lesion (mean score) / Total Glomerular Lesion (table title: Mean Total Kidney Lesion Scores) / Total Tubular and Interstitial Lesion (mean score) / Mean total glomerular lesion score / Mean total kidney lesion score / Mean total tubular and interstitial lesion score: Week 19
Method: Female MRL/MpJ-Faslpr mice (The Jackson Laboratory) were used to assess the efficacy of Compound A in treating lupus. Starting when animals were 10 weeks of age, protein concentration in urine was measured using urine dipsticks.
At the start of the study, each group in the study had two animals that were 9 weeks old, and all others were 10 weeks old. Dosing of all animals with the test compounds began when the older animals were 11 weeks old. […] […] Dosing was at a consistent time each dosing day throughout the study.
Compound A may be formulated as illustrated in Experimental Method A (see Table 2E.). […] A stock solution of Compound A in DMSO (stock solution concentration of Compound A of 40 mg/mL) was prepared and aliquots for weekly preparations were frozen at −20° C. On each preparation day, a stock solution aliquot was thawed and diluted with other vehicle components to the desired concentration. Formulated Compound A and vehicle were at room temperature for dosing.
The study began when the older animals were 11 weeks old, and concluded when the older animals were 19 weeks old. Body weight was recorded once a week, with the exception of two weight measurements taken the first week of the study (when the older animals were 11 weeks old). Proteinuria was measured in the urine of animals with urine dipsticks once a week, starting when the older animals were 10 weeks old. […] Blood samples were taken retro-orbitally at the start of the study to establish a baseline (15 animals, 3 per group), and when the older animals were 16 weeks (all animals) and when animals were 19 weeks (all animals) at the conclusion of the study. Blood urea nitrogen (BUN) was measured in all animals at study termination in blood samples. After blood collection, animals were euthanized, perfused with PBS, and the left kidneys were collected and weighed and fixed in 10% buffered formalin. Left kidneys were then processed to a formalin-fixed, paraffin-embedded (FFPE) block, and histology was analyzed in Periodic Acid-Schiff-stained sections (1 section per slide), using the criteria described in Alperovich et al., Lupus, 16:18-24 (2007). Right kidneys were weighed and snap-frozen at −80° C. Spleens were also collected and weighed. SLE in animals treated with a BET inhibitor and vehicle.

[2] = Dog PK study #4 (Compound A PO daily 14 days, 1/3/10 mg/kg; toxicokinetics, platelet counts); format: in vivo, beagle dogs; settings: for Mean Platelet Count: Day 15 following 14 days of administration; for concentration at 0.5 h / concentration at 1 h / concentration at 2 h / concentration at 4 h / concentration at 8 h / concentration at 24 h: beagle, dog, plasma, oral, after daily administration for 14 days
Method: The different doses of compound A were orally administered to animals (n=2/group, one male and one female animal) daily for 14 days.
Blood samples were collected at 0.5, 1, 2, 4, 8, and 24 hours after administration of Compound A on Day 14, and EDTA-K2 was used as an anticoagulant. Within 30 minutes of collection, the samples were centrifuged at approximately 2000×g for 10 minutes at 4° C. to obtain blood plasma. The samples were immediately divided into aliquots, transferred to cryogenic vials, and stored in a freezer at −75+15° C. prior to analysis.
The concentration of Compound A in the blood plasma was determined through liquid chromatography-mass spectrometry (LC-MS). The experiments were conducted on a Shimadzu UPLC and AB API 6500+LC/MS/MS with a Water […] UPLC HSS T3 1.8 μm (50×2.1 mm) column. A gradient of 0.1% formic acid in water/0.1% formic acid in acetonitrile was used as the mobile phase. The sample injection volume was 1 μL. The flow rate was 0.6 mL/min.
The desired serial concentrations of working solutions were achieved by diluting 30 μL of sample (control standard, QC standard, test samples) with 30 μL of a 50% acetonitrile in water solution (for double blanks) or 30 μL of the IS mixture (Compound B 80 ng/ml in 50% acetonitrile). 240 μL of 100% acetonitrile was then added and samples were vortexed for 5 min and centrifuged at 3200×g at 4° C. for 10 min. 100 μL of the supernatant was transferred and then diluted with 50% acetonitrile. Samples were then vortexed for about 5 min before injection into the LC/MS/MS system for quantitative analysis.

[3] = both sexes, 1 mg/kg, Pooled Mean
[4] = both sexes, 3 mg/kg, Pooled Mean
[5] = both sexes, 10 mg/kg, Pooled Mean

In the case of Cn1cc(-c2ccccc2)c(-c2cn(C)c(=O)c3[nH]c(-c4cnn(C(F)(F)F)c4)cc23)cc1=O [Compound A, 6-methyl-4-(1-methyl-2-oxo-5-phenyl-1,2-dihydropyridin-4-yl)-2-(1-(trifluoromethyl)-1H-pyrazol-4-yl)-1,6-dihydro-7H-pyrrolo[2,3-c]pyridin-7-one], the “Total Glomerular Lesion (mean score)” value ([1]; Compound A 1 mg/kg PO QD) is reported as 3.9, the “Total Glomerular Lesion (table title: Mean Total Kidney Lesion Scores)” value ([1]; Compound A 1 mg/kg PO QD) is reported as 5.1 and the “Total Tubular and Interstitial Lesion (mean score)” value ([1]; Compound A 1 mg/kg PO QD) is reported as 1.2. The “Total Glomerular Lesion (mean score)” value ([1]; Compound A 3 mg/kg PO QD) was 2.7, the “Total Glomerular Lesion (table title: Mean Total Kidney Lesion Scores)” value ([1]; Compound A 3 mg/kg PO QD) was 3.8 and the “Total Tubular and Interstitial Lesion (mean score)” value ([1]; Compound A 3 mg/kg PO QD) was 1.1. The “Total Glomerular Lesion (mean score)” value ([1]; Compound A 10 mg/kg PO QD) was 1.1, the “Total Glomerular Lesion (table title: Mean Total Kidney Lesion Scores)” value ([1]; Compound A 10 mg/kg PO QD) was 1.6 and the “Total Tubular and Interstitial Lesion (mean score)” value ([1]; Compound A 10 mg/kg PO QD) was 0.5. For the same compound, the “Mean total glomerular lesion score” value ([1]; 1 mg/kg) was “about 3.9”, the “Mean total kidney lesion score” value ([1]; 1 mg/kg) was “about 5.1” and the “Mean total tubular and interstitial lesion score” value ([1]; 1 mg/kg) was “about 1.2”. The “Mean total glomerular lesion score” value ([1]; 3 mg/kg) was “about 2.7”, the “Mean total kidney lesion score” value ([1]; 3 mg/kg) was “about 3.8” and the “Mean total tubular and interstitial lesion score” value ([1]; 3 mg/kg) was “about 1.1”. For the same compound, the “Mean total glomerular lesion score” value ([1]; 10 mg/kg) was “about 1.1”, the “Mean total kidney lesion score” value ([1]; 10 mg/kg) was “about 1.6” and the “Mean total tubular and interstitial lesion score” value ([1]; 10 mg/kg) was “about 0.5”. For the same compound, the “Kidney histology images (FIGS. 30H-30L), disease suppression” value ([1]; increasing dosage) was “dose dependent improvement in disease suppression”, the “exposure difference between male and female animals” value ([2]; Day 14) was “no exposure differences” and the “plasma concentration relative to BD2 BRD4 and BD1 BRD4 free EC50” value ([2]; Day 14, 1, 3 and 10 mg/kg, all time points over 24 hours) was “remained well above the BD2 BRD4 EC50”. For the same compound, the “time of peak (or plateau) plasma concentration” value ([2]; Day 14, all animals) was “approximately 2 hours”, the “platelet counts relative to vehicle” value ([2]; Day 15, after 14 days of 1, 3 or 10 mg/kg) was “no appreciable difference in platelet counts” and the “Mean Platelet Count” value ([2]; 1 mg/kg) was 260750 µL⁻¹. The “Mean Platelet Count” value ([2]; 3 mg/kg) was 241000 µL⁻¹, the “Mean Platelet Count” value ([2]; 10 mg/kg) was 293000 µL⁻¹ and the concentration at 0.5 h ([2]; 1 mg/kg, Female) was 27.8 ng/mL. It also gave a concentration at 1 h ([2]; 1 mg/kg, Female) of 57.9 ng/mL, a concentration at 2 h ([2]; 1 mg/kg, Female) of 70.1 ng/mL and a concentration at 4 h ([2]; 1 mg/kg, Female) of 55.9 ng/mL. It also gave a concentration at 8 h ([2]; 1 mg/kg, Female) of 25.7 ng/mL, a concentration at 24 h ([2]; 1 mg/kg, Female) of 10.3 ng/mL and a concentration at 0.5 h ([2]; 1 mg/kg, Male) of 31.6 ng/mL. It also gave a concentration at 1 h ([2]; 1 mg/kg, Male) of 56.7 ng/mL, a concentration at 2 h ([2]; 1 mg/kg, Male) of 60.8 ng/mL and a concentration at 4 h ([2]; 1 mg/kg, Male) of 44.8 ng/mL. The concentration at 8 h ([2]; 1 mg/kg, Male) was 24.5 ng/mL, the concentration at 24 h ([2]; 1 mg/kg, Male) was 25.1 ng/mL and the concentration at 0.5 h ([2]; 3 mg/kg, Female) was 152 ng/mL. It also gave a concentration at 1 h ([2]; 3 mg/kg, Female) of 324 ng/mL, a concentration at 2 h ([2]; 3 mg/kg, Female) of 320 ng/mL and a concentration at 4 h ([2]; 3 mg/kg, Female) of 230 ng/mL. It also gave a concentration at 8 h ([2]; 3 mg/kg, Female) of 87.5 ng/mL, a concentration at 24 h ([2]; 3 mg/kg, Female) of 14.2 ng/mL and a concentration at 0.5 h ([2]; 3 mg/kg, Male) of 98.3 ng/mL. It also gave a concentration at 1 h ([2]; 3 mg/kg, Male) of 201 ng/mL, a concentration at 2 h ([2]; 3 mg/kg, Male) of 265 ng/mL and a concentration at 4 h ([2]; 3 mg/kg, Male) of 245 ng/mL. For the same compound, the concentration at 8 h ([2]; 3 mg/kg, Male) was 165 ng/mL, the concentration at 24 h ([2]; 3 mg/kg, Male) was 33 ng/mL and the concentration at 0.5 h ([2]; 10 mg/kg, Female) was 1130 ng/mL. The concentration at 1 h ([2]; 10 mg/kg, Female) was 1630 ng/mL, the concentration at 2 h ([2]; 10 mg/kg, Female) was 1680 ng/mL and the concentration at 4 h ([2]; 10 mg/kg, Female) was 1070 ng/mL. It also gave a concentration at 8 h ([2]; 10 mg/kg, Female) of 342 ng/mL, a concentration at 24 h ([2]; 10 mg/kg, Female) of 61.6 ng/mL and a concentration at 0.5 h ([2]; 10 mg/kg, Male) of 1010 ng/mL. For the same compound, the concentration at 1 h ([2]; 10 mg/kg, Male) was 1450 ng/mL, the concentration at 2 h ([2]; 10 mg/kg, Male) was 1490 ng/mL and the concentration at 4 h ([2]; 10 mg/kg, Male) was 1350 ng/mL. It also gave a concentration at 8 h ([2]; 10 mg/kg, Male) of 646 ng/mL, a concentration at 24 h ([2]; 10 mg/kg, Male) of 145 ng/mL and a concentration at 0.5 h [2, 3] of 29.7 ng/mL. For the same compound, the concentration at 1 h [2, 3] was 57.3 ng/mL, the concentration at 2 h [2, 3] was 65.5 ng/mL and the concentration at 4 h [2, 3] was 50.4 ng/mL. For the same compound, the concentration at 8 h [2, 3] was 25.1 ng/mL, the concentration at 24 h [2, 3] was 17.7 ng/mL and the concentration at 0.5 h [2, 4] was 125 ng/mL. It also gave a concentration at 1 h [2, 4] of 262 ng/mL, a concentration at 2 h [2, 4] of 292 ng/mL and a concentration at 4 h [2, 4] of 238 ng/mL. The concentration at 8 h [2, 4] was 126 ng/mL, the concentration at 24 h [2, 4] was 23.6 ng/mL and the concentration at 0.5 h [2, 5] was 1070 ng/mL. The concentration at 1 h [2, 5] was 1540 ng/mL, the concentration at 2 h [2, 5] was 1580 ng/mL and the concentration at 4 h [2, 5] was 1210 ng/mL. The concentration at 8 h [2, 5] was 494 ng/mL and the concentration at 24 h [2, 5] was 103 ng/mL.
